# What was measured:
# filaggrin mRNA = assay: Ability to promote synthesis of filaggrin: RT-PCR of filaggrin mRNA in normal human epidermic cells; details: 0.63 v/v % in medium, 24 hours; relative value, control = 100, standardized to cyclophilin mRNA
# Description: (§1) A 35 mm culture dish was seeded with the epidermic cells at a cell concentration of 5×10^5 cells per dish, and subjected to culture for 24 hours.
# (§2) (2) After the culture, the cells were washed with PBS (−), and lysed with 500 μl, per dish of TRIzol reagent (trade name, manufactured by Gibco BRL). 100 μL per dish of chloroform was added and mixed thoroughly. The supernatant aqueous phase was recovered by centrifugation, and RNAs were precipitated with 2-propanol to obtain the total RNAs. The obtained total RNAs were washed with 75% cold ethanol, and dissolved in diethyl pyrocarbonate (DEPC)-treated water.
# (§3) (3) 1 μg of the RNAs dissolved in DEPC-treated water was subjected to RT-PCR using One step RT-PCR kit (trade name, manufactured by Qiagen) in accordance with its protocol under the conditions and with the primers shown in Table 2, to reverse transcript and amplify the cDNA corresponding to serine palmitoyl transferase (SPT) mRNA, filaggrin mRNA, or cyclophilin RNA.
# (§4) (4) After the reaction, the reaction product was fractionated by 1% agarose gel electrophoresis. The electrophoresis gel was stained with ethidium bromide, and photographed under UV irradiation on a transilluminator, to determine the band intensity.
# The test was conducted twice.
# [1] = test system: serine palmitoyl transferase (SPT) mRNA; assay: Ability to promote synthesis of SPT: RT-PCR of SPT mRNA in normal human epidermic cells; details: 0.63 v/v % in medium, 24 hours; relative value, control = 100, standardized to cyclophilin mRNA
# Description: as §1, §2, §3, §4
# The test was conducted twice.
structure (smiles),measurement,setting,value
CC(O)C(=O)O (stereo not shown) [lactic acid],"Effect on expression of filaggrin mRNA of normal epidermic cells, 1st Test",filaggrin mRNA,15
same,"Effect on expression of filaggrin mRNA of normal epidermic cells, 2nd Test",filaggrin mRNA,132
same,"Effect on expression of SPT mRNA of normal human epidermic cells, 1st Test",[1],91
same,"Effect on expression of SPT mRNA of normal human epidermic cells, 2nd Test",[1],111

# Reference: patent publication US20100151039A1, “SKIN MOISTURIZING AGENT FOR ORAL INTAKE AND FUNCTIONAL FOODS AND DRINKS” (CALPIS CO., LTD., priority 2003, published 2010)
